Data set [1] deals with T1, PERK (Homo sapiens, UniProt Q9NZJ5).
T1 sequence (Q9NZJ5 30-1116): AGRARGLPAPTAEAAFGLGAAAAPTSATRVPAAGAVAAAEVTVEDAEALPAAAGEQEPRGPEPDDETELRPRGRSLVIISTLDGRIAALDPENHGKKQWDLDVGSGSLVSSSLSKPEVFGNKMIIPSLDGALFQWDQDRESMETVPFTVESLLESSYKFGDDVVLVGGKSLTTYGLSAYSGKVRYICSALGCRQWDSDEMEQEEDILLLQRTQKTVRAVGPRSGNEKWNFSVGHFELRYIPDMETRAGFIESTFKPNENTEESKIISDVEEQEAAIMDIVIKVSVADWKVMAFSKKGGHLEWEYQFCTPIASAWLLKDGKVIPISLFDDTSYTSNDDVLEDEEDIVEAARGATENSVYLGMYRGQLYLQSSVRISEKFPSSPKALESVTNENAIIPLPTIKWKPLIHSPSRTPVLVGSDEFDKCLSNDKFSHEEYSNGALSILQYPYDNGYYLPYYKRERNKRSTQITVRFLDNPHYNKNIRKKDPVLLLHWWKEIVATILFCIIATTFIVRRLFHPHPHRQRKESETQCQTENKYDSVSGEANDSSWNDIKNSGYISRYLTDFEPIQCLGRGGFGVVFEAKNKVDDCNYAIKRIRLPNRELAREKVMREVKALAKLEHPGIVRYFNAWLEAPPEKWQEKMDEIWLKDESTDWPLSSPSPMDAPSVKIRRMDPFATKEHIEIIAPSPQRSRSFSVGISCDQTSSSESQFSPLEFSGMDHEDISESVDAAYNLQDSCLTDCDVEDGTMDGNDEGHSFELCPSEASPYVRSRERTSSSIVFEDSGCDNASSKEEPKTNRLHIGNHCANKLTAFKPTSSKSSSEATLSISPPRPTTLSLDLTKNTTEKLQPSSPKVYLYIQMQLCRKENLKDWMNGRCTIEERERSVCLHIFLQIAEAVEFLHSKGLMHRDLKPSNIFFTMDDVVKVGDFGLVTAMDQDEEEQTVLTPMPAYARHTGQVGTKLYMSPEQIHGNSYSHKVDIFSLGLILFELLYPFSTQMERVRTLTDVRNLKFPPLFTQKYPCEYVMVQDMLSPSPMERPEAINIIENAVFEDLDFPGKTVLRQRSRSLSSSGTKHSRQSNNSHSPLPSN
The experiment in a line: In-vitro PERK enzyme inhibition assay (LanthaScreen, KIN_PERK). The class given is biochemical. More on the design: GST (N); purchased Invitrogen PV5106. Conditions: recombinant GST-PERK, GFP-eIF2 alpha substrate, 5 μM ATP, 60 minutes; for IC50: read-out: KIN_PERK pIC50 (converted). The method, then: Pharmacology i) In-Vitro PERK Enzyme Inhibition Assay (KIN_PERK pIC50)
The compounds of the invention were tested for inhibitory activity against PERK in an enzyme inhibition assay.
A biochemical PERK kinase assay using LanthaScreen® technology from Invitrogen using recombinant GST-PERK (Invitrogen PV5106), GFP-eIF2 alpha (full length) as substrate (Invitrogen PV4809) and the Terbium-labeled antibody (Tb-anti-peIF2alpha (pSer52); Invitrogen PV4816) as detection reagent, was performed essentially as described by the manufacturer, using following specific parameters: […]

Data set [2] has as its target T1, PERK. The experiment in a line: Cell-based PERK inhibition assay (TR-FRET, phosphorylation of GFP-eIF2 alpha in HEK293 cells, tunicamycin). The method, then: A cell-based TR-FRET assay to measure inhibition of phosphorylation of GFP-eIF2 alpha expressed in HEK293 cells by compounds was set up as follows:
LanthaScreen® eIF2α GripTite cells (Invitrogen M4387) were plated and incubated for 16-20 h at 37° C. and 5% CO2, incubated with test compounds for 60 min, and then stimulated with tunicamycin (2 microg/ml) for 120 min. Culture medium was aspirated from the wells and, the cells were lysed in LanthaScreen® Cellular Assay Lysis Buffer (Invitrogen; PV5598), supplemented with protease inhibitor cocktail (Sigma P8340, 1/1000 dilution) and phosphatase inhibitor cocktail (Sigma P0044, 1/1000 dilution), including 2 nM terbium-labeled eIF2a pSer52 antibody (Invitrogen; PV4816).
(TR-FRET usually uses a lanthanide donor and a delayed reading to cut background.)

[3] abbreviates: HEK293 (LanthaScreen eIF2α GripTite) cells, compounds 60 min, tunicamycin 2 microg/ml 120 min.
The mark [4] stands for this setting: HEK293 (LanthaScreen eIF2α GripTite) cells, compounds 60 min, tunicamycin 2 microg/ml 120 min, read-out: P-eIF2alpha_Lantha_cell pIC50 (converted).

Consider `COc1cc2ncnc(Nc3ccc4c(c3)CCN4C(=O)Cc3c(C)[nH]c4ccc(F)cc34)c2cc1OC` [Compound 2], for which the IC50 is 0.631 nM at PERK [1] and 25.1 nM against PERK [2].
As to `COc1cc2ncnc(Nc3ccc4c(c3)CCN4C(=O)Cc3c(C)[nH]c4c(F)cccc34)c2cc1OC` [Compound 4], the “KIN_PERK pIC50” value at PERK [1] worked out at 8.8. In addition, on PERK [2] (setting [3]), the “P-eIF2alpha_Lantha_cell pIC50” value is given as 7.4.
With `COc1ccc2[nH]c(C)c(CC(=O)N3CCc4cc(Nc5ncnc6cc(OC)c(OC)cc56)ccc43)c2c1` [Compound 6], the IC50 at PERK [1] was 1.58 nM; on PERK [2] (setting [4]), 79.4 nM.
For the compound `COc1cc2ncnc(Nc3ccc4c(c3)CCN4C(=O)Cn3c(C)cc4ccc(F)cc43)c2cc1OC` [Compound 7], the “KIN_PERK pIC50” value at PERK [1] was found to be 8.5. Further, the “P-eIF2alpha_Lantha_cell pIC50” value on PERK [2] (setting [3]) amounted to 7.1.
A word on the melting point: it is the temperature, or range, at which the solid turns liquid. Turning to `COc1cc2ncnc(Nc3ccc4c(c3)CCN4C(=O)Cc3c(C)[nH]c4ccccc34)c2cc1OCCCN1CCOCC1` [Compound 8], the melting point stood at 216 °C. Also, the IC50 on PERK [2] (setting [4]) is 158 nM.
As to `COc1cc2ncnc(Nc3ccc4c(c3)CCN4C(=O)Cn3nc(C)c4ccccc43)c2cc1OC` [Compound 9], the IC50 on PERK [1] was 15.8 nM; at PERK [2] (setting [4]) it was 251 nM.
For the compound `Cc1[nH]c2ccccc2c1CC(=O)N1CCc2cc(Nc3ncnc4cc5c(cc34)OCO5)ccc21` [Compound 10], the IC50 on PERK [1] was 3.98 nM; on PERK [2] (setting [4]), 158 nM.
On to `COc1cc2ncnc(Nc3ccc4c(c3)CCN4C(=O)Cc3cn(C)c4ccccc34)c2cc1OC` [Compound 12], for which the IC50 is 5.01 nM on PERK [1] and 200 nM at PERK [2] (setting [4]).
Turning to `COc1cc2ncnc(Nc3ccc4c(c3)CCN4C(=O)Cn3ccc4ccc(F)cc43)c2cc1OC` [Compound 13], the values for the IC50 at PERK [1] and at PERK [2] (setting [4]) were 3.98 nM and 200 nM, respectively.
In the case of `COc1cc2ncnc(Nc3ccc4c(c3)C(F)(F)CN4C(=O)Cc3cc(F)ccc3F)c2cc1OC` [Compound 18], the IC50 on PERK [1] was 31.6 nM; on PERK [2] (setting [4]), 794 nM.
In the case of `COc1cc2ncnc(Nc3ccc4c(c3)CCN4C(=O)Cc3c(C)nc4ccccn34)c2cc1OC` [Compound 19], the IC50 is 12.6 nM on PERK [1] and 1260 nM at PERK [2] (setting [4]).
`COc1cc2ncnc(Nc3ccc4c(c3)CCN4C(=O)Cc3ccccc3)c2cc1OC` [Compound 21]: the results for the IC50 at PERK [1] and on PERK [2] (setting [4]) were 25.1 nM and 1260 nM, respectively.
On the same counts, the results for `COc1cc2ncnc(Nc3ccc4c(c3)CCN4C(=O)Cc3ccsc3)c2cc1OC` [Compound 22] are 63.1 nM and 2000 nM.
On the same counts, the results for `COc1cc2ncnc(Nc3ccc4c(c3)CCN4C(=O)Cc3n[nH]c4ccc(F)cc34)c2cc1OC` [Compound 23] are 31.6 nM and 2000 nM.
For the compound `COc1cc2ncnc(Nc3ccc4c(c3)CCN4C(=O)Cn3ncc4ccccc43)c2cc1OC` [Compound 24], the IC50 at PERK [1] is 79.4 nM; on PERK [2] (setting [4]), 3160 nM.
Regarding `COc1cc2ncnc(Nc3ccc4c(c3)CCN4C(=O)COc3ccccc3C(C)=O)c2cc1OC` [Compound 25], the values for the IC50 at PERK [1] and at PERK [2] (setting [4]) were 79.4 nM and 3160 nM, respectively.
Take `COc1cc2ncnc(Nc3ccc4c(c3)CCN4C(=O)Cc3n[nH]c4ccccc34)c2cc1OC` [Compound 26]: the IC50 was 63.1 nM on PERK [1] and 3160 nM at PERK [2] (setting [4]).
Take `COc1cc2ncnc(Nc3ccc4c(c3)CCN4C(=O)Cc3c[nH]c4ncccc34)c2cc1OC` [Compound 27]: the IC50 at PERK [1] is 63.1 nM; at PERK [2] (setting [4]) it was 3980 nM.
On the same counts, the results for `COc1cc2ncnc(Nc3ccc4c(c3)CCN4C(=O)Cn3c(=O)n(C)c4ccccc43)c2cc1OC` [Compound 29] are 50.1 nM and over 30200 nM.
As for `COc1cc2ncnc(Nc3ccc4c(c3)CCN4C(=O)Cn3cnc4ccccc43)c2cc1OC` [Compound 31], the IC50 is 63.1 nM at PERK [1] and over 30200 nM on PERK [2] (setting [4]).
Consider `COc1cc2ncnc(Nc3ccc4c(c3)CCN4C(=O)Cc3cc4ccccc4[nH]3)c2cc1OC` [Compound 32], for which the IC50 on PERK [1] was 398 nM; on PERK [2] (setting [4]) it was over 30200 nM.
On to `COc1cc2ncnc(Nc3ccc4c(c3)CCN4C(=O)Cc3c(-c4ccccc4)[nH]c4ccccc34)c2cc1OC` [Compound 33], for which the IC50 on PERK [1] was 6310 nM.
Take `COc1cc2ncnc(Nc3ccc4c(c3)CCN4C(=O)CN3Cc4ccccc4C3=O)c2cc1OC` [Compound 34]: the IC50 at PERK [1] is 1580 nM.
In the case of `O=C(Cc1cc(F)ccc1F)N1CCc2cc(Nc3ncnc4cc5c(cc34)OCO5)ccc21` [Compound 35], the IC50 on PERK [1] was over 10000 nM.
Take `COc1cc2ncnc(Nc3ccc4c(c3)CCN4C(=O)CN3C(=O)c4ccccc4C3=O)c2cc1OC` [Compound 36]: the melting point was 190 °C. At PERK [1], the IC50 was 3160 nM.
With `COc1cc2ncnc(Nc3ccc4c(c3)CCN4C(=O)Cc3cn(C(C)C)c4ccccc34)c2cc1OC` [Compound 37], the IC50 on PERK [1] was 1580 nM.
The same measure, in the same setting: as for `COc1cc2ncnc(Nc3cnc4c(c3)CCN4C(=O)Cc3cc(F)cc(C(F)(F)F)c3)c2cc1OC` [Compound 38], the figure is 3160 nM.
Regarding `COc1cc2ncnc(Nc3ccc4c(c3)CCN4C(=O)Cc3cc(F)cc(C(F)(F)F)c3)c2cc1OC` [Compound 43], the values for the IC50 at PERK [1] and on PERK [2] (setting [4]) were 2 nM and 1580 nM, respectively.
Consider `COc1ccc2ncnc(Nc3ccc4c(c3)CCN4C(=O)Cc3cc(F)cc(C(F)(F)F)c3)c2c1` [Compound 44], for which the results for the IC50 on PERK [1] and at PERK [2] (setting [4]) were about 21.4 nM and over 30200 nM, respectively.
As for `COc1ccc2c(Nc3ccc4c(c3)CCN4C(=O)Cc3cc(F)cc(C(F)(F)F)c3)ncnc2c1` [Compound 45], the IC50 at PERK [1] is 39.8 nM; at PERK [2] (setting [4]), over 30200 nM.
On to `COc1cc2ncnc(Nc3ccc4c(c3)CCN4C(=O)Cc3c(-c4cccs4)cnn3C)c2cc1OC` [Compound 46, 1-[5-[(6,7-dimethoxyquinazolin-4-yl)amino]indolin-1-yl]-2-[2-methyl-4-(2-thienyl)pyrazol-3-yl]ethanone], for which the IC50 at PERK [1] was 398 nM; on PERK [2] (setting [4]) it was about 11500 nM.
For `COc1cc2ncnc(Nc3ccc4c(c3)CCN4C(=O)Cc3ccnn3C)c2cc1OC` [Compound 47, 1-[5-[(6,7-dimethoxyquinazolin-4-yl)amino]indolin-1-yl]-2-(2-methylpyrazol-3-yl)ethanone], the IC50 at PERK [1] was 63.1 nM; at PERK [2] (setting [4]), 6310 nM.
For the compound `COc1cc2ncnc(Nc3ccc4c(c3)CCN4C(=O)Cc3c(-c4ccccc4)cnn3C)c2cc1OC` [Compound 48], the figures for the IC50 at PERK [1] and at PERK [2] (setting [4]) were 251 nM and 1260 nM, respectively.
With `COc1cc2ncnc(Nc3ccc4c(c3)CCN4C(=O)Cc3c(-c4ccoc4)cnn3C)c2cc1OC` [Compound 49], the IC50 at PERK [1] is 50.1 nM; on PERK [2] (setting [4]), 3160 nM.
On to `COc1cc2ncnc(Nc3ccc4c(c3)CCN4C(=O)Cc3c(-c4cnoc4)cnn3C)c2cc1OC` [Compound 50], for which the IC50 on PERK [1] is 79.4 nM; on PERK [2] (setting [4]), 3160 nM.
On to `COc1cc2ncnc(Nc3ccc4c(c3)CCN4C(=O)Cc3c(-c4ccsc4)cnn3C)c2cc1OC` [Compound 51], for which the IC50 was 251 nM at PERK [1] and 31600 nM on PERK [2] (setting [4]).
Turning to `COc1cc2ncnc(Nc3ccc4c(c3)CCN4C(=O)Cc3c(-c4cnn(C)c4)cnn3C)c2cc1OC` [Compound 52], the IC50 was 631 nM on PERK [1] and over 30200 nM at PERK [2] (setting [4]).

The record behind these values is patent US9688662B2, “N-(2,3-dihydro-1H-pyrrolo[2,3-b]pyridin-5-yl)-4-quinazolinamine and N-(2,3-dihydro-1H-indol-5-yl)-4-quinazolinamine derivatives as perk inhibitors” (Janssen Pharmaceutica NV, priority 2013, dated 2017).
